The source made the active and inactive calls. For most assays here, no stated cut-off is given here; in the data, actives have a measured Kd and inactives only a lower limit.
Experiments:
[1] = molecular target: T1, Mitogen-activated protein kinase kinase kinase 2 (Homo sapiens, UniProt Q9Y2U5)
T1 sequence (Q9Y2U5 whole entry): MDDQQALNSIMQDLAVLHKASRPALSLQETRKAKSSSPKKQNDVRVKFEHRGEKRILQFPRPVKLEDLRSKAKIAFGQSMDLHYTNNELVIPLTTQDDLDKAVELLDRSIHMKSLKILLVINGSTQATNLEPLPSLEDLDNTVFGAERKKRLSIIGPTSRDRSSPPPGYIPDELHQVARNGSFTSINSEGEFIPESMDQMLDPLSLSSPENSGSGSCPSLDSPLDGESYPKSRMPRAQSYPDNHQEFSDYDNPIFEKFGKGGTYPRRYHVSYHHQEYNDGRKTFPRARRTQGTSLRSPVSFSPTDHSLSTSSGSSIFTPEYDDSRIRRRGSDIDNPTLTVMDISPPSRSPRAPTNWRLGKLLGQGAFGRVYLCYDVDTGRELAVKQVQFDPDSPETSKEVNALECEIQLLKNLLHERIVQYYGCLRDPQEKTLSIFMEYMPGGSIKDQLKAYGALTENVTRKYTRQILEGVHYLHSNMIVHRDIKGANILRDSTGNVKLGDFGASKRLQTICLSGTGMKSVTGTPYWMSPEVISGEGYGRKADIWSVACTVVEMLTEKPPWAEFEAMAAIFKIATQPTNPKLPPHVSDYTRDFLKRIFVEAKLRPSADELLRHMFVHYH

[2] = molecular target: Eukaryotic translation initiation factor 2-alpha kinase 1 (Homo sapiens, UniProt Q9BQI3)
[3] = molecular target: Protein kinase C delta type (Homo sapiens, UniProt Q05655)
[4] = molecular target: T2, Glycogen phosphorylase, liver form (Homo sapiens, UniProt P06737); assay type: subcellular, K-562, COLO 205, SK-N-BE(2) and MV-4-11, Cell lysate; conditions: read-out: Kd apparent
T2 sequence (P06737 whole entry): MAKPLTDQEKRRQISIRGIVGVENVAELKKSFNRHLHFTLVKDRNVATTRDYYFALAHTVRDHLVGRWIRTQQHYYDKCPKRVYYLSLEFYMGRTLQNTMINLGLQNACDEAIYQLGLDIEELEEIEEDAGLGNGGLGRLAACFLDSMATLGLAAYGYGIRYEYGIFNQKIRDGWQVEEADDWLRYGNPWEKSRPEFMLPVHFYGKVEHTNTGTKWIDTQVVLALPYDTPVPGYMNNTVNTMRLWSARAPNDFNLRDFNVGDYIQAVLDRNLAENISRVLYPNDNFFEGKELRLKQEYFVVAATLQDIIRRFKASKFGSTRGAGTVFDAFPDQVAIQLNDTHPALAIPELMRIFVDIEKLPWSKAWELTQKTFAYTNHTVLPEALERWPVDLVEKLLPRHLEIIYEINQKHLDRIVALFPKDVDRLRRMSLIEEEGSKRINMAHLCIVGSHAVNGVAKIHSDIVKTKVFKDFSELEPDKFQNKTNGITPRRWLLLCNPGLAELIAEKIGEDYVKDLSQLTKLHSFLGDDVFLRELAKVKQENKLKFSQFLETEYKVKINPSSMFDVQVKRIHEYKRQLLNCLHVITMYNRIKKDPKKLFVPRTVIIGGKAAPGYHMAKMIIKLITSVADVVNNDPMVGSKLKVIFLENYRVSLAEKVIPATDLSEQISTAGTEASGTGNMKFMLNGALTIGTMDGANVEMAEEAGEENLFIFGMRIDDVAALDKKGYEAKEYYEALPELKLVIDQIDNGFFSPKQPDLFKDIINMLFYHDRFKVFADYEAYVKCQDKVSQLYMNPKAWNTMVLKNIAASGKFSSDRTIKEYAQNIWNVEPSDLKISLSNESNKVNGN

[5] = molecular target: Serine/threonine-protein kinase 16 (Homo sapiens, UniProt O75716)
[6] = molecular target: T3, Probable ATP-dependent RNA helicase DDX6 (Homo sapiens, UniProt P26196)
T3 sequence (P26196 whole entry): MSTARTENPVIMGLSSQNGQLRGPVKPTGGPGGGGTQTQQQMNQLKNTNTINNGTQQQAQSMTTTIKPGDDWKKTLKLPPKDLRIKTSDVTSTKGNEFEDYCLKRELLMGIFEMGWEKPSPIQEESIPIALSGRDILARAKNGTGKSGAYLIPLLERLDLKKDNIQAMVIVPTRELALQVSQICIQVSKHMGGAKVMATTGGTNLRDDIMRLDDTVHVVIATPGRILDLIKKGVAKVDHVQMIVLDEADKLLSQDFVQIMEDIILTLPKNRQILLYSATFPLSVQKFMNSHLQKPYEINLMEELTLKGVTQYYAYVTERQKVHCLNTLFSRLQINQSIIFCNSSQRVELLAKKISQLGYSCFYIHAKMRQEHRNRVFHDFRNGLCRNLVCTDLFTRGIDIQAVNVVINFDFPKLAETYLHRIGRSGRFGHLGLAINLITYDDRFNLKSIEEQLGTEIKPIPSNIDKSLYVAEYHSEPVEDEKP

[7] = molecular target: AP2-associated protein kinase 1 (Homo sapiens, UniProt Q2M2I8)
[8] = molecular target: MAP kinase-activated protein kinase 2 (Homo sapiens, UniProt P49137)
[9] = molecular target: Tyrosine-protein kinase Lyn (Homo sapiens, UniProt P07948)
[10] = molecular target: Serine/threonine-protein kinase 10 (Homo sapiens, UniProt O94804)

Measured: Kd

Protein kinase C delta type, sequence (Q05655 whole entry): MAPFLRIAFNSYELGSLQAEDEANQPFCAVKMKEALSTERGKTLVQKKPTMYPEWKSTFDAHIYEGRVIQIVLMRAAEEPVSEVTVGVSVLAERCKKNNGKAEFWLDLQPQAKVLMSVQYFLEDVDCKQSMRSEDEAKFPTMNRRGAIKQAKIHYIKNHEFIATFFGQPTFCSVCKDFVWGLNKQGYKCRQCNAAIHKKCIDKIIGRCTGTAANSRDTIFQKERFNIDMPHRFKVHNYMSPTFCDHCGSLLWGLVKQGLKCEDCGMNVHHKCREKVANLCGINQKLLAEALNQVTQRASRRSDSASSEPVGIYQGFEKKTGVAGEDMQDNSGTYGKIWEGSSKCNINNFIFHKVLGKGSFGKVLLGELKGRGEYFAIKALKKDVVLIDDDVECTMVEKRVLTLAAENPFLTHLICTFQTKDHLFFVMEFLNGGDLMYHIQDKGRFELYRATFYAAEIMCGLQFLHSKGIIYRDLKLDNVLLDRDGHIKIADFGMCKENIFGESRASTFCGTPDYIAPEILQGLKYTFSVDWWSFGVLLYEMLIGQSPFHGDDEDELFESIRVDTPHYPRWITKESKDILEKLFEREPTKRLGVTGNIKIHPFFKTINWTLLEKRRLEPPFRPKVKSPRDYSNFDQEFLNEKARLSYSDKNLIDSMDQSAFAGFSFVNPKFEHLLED
Eukaryotic translation initiation factor 2-alpha kinase 1, sequence (Q9BQI3 whole entry): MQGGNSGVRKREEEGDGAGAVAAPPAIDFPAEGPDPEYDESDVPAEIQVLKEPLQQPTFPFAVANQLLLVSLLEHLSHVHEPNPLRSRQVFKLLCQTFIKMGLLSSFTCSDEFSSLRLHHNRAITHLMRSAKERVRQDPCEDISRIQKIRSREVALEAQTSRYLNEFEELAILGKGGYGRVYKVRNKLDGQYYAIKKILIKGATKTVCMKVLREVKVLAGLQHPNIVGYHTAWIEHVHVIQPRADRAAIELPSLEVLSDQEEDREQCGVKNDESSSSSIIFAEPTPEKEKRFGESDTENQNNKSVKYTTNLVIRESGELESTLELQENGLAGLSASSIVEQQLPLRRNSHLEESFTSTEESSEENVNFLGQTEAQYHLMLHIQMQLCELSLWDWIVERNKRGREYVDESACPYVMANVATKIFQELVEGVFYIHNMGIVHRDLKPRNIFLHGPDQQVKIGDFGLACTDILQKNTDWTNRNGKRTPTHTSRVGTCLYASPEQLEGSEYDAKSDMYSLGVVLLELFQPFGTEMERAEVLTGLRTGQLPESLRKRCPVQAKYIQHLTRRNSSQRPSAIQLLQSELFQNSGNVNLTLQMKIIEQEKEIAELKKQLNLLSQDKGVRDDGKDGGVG
AP2-associated protein kinase 1, sequence (Q2M2I8 whole entry): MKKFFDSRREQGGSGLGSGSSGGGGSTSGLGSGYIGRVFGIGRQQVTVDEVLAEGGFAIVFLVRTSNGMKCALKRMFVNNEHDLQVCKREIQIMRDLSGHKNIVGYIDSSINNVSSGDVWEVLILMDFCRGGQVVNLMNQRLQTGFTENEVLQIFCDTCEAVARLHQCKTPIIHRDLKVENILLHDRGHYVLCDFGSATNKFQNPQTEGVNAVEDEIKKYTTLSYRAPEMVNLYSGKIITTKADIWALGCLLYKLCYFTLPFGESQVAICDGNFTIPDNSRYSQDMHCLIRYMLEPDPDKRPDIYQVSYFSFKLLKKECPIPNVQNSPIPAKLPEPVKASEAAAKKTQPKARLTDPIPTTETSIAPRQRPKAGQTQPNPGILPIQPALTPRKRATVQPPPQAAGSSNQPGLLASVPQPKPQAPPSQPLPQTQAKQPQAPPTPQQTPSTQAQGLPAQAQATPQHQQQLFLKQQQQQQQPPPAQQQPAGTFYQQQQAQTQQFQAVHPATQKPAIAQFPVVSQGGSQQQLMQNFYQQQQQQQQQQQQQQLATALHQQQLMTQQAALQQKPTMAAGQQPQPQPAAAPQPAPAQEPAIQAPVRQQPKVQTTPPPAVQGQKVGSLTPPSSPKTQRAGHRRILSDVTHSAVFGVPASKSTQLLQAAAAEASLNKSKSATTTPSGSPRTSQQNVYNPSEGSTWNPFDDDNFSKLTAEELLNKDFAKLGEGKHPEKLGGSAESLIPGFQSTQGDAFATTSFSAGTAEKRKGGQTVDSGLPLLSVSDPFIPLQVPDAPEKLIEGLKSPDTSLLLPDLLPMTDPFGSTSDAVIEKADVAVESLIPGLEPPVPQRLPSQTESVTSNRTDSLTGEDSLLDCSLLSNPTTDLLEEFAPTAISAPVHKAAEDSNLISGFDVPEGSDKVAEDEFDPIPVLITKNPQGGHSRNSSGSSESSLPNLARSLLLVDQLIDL
Serine/threonine-protein kinase 10, sequence (O94804 whole entry): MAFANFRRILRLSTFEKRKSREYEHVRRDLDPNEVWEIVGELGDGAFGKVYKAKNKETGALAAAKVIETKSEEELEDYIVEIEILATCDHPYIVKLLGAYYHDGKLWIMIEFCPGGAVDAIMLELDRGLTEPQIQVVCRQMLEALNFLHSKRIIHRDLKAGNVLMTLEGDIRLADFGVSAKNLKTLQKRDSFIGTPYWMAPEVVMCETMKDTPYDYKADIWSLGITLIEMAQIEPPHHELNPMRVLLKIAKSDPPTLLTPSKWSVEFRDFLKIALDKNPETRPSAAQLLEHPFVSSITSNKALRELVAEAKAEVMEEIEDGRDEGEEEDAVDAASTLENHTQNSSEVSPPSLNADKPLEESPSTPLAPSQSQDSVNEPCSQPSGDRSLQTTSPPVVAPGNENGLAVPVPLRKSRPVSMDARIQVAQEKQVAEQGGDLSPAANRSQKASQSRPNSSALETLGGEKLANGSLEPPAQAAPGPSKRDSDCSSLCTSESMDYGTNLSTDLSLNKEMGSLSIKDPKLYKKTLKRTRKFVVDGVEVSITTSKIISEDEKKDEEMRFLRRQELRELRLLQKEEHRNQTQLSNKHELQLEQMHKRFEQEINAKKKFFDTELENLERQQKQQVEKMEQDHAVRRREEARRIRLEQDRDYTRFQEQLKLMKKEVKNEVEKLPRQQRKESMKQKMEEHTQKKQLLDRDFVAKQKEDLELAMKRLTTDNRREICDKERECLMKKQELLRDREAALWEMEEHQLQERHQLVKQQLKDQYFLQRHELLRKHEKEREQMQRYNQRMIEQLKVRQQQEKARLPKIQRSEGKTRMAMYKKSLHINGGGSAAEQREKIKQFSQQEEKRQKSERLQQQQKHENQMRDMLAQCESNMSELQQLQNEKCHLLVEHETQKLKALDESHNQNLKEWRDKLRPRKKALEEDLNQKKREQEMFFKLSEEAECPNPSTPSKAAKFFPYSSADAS
MAP kinase-activated protein kinase 2, sequence (P49137 whole entry): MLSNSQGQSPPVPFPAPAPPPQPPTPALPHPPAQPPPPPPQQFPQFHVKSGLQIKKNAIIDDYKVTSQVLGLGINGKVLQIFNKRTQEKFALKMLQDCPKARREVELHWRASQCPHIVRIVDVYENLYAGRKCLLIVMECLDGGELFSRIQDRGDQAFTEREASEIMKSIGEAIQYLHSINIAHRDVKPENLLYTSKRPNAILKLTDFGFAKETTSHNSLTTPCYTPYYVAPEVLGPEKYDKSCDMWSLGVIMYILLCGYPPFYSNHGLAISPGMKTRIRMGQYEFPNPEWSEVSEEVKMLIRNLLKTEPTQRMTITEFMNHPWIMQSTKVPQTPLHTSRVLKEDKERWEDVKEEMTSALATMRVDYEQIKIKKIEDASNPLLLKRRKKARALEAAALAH
Serine/threonine-protein kinase 16, sequence (O75716 whole entry): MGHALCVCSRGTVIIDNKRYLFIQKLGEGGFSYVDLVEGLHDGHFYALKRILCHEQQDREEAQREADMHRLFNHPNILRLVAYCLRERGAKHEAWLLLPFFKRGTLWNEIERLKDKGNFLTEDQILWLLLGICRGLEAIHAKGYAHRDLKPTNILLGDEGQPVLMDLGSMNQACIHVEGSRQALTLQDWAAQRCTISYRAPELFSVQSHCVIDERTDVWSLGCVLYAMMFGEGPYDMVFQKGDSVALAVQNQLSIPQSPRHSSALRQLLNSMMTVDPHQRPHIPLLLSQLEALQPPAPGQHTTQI
Tyrosine-protein kinase Lyn, sequence (P07948 whole entry): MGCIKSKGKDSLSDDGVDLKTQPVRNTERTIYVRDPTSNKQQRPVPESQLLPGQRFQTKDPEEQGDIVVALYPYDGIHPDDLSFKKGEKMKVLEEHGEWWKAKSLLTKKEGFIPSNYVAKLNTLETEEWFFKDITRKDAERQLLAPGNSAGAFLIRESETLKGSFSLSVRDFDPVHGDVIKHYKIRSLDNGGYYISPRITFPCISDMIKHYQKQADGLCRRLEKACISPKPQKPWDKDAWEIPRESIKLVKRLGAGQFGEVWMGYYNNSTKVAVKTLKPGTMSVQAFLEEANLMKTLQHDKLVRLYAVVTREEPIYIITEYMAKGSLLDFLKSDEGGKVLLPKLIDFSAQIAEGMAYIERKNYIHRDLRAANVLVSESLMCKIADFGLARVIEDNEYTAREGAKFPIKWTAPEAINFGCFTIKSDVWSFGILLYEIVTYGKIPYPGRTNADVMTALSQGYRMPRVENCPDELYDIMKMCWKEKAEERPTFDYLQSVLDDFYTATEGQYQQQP

CNC(=O)CN1CCC(Oc2cc3c(Nc4cccc(Cl)c4F)ncnc3cc2OC)CC1 [SAPITINIB]
inactive: [1] > 30 µM | [2] > 30 µM | [3] > 30 µM | [4] > 30 µM | [5] > 30 µM | [6] > 30 µM | [7] > 30 µM | [8] > 30 µM | [10] > 30 µM
active: [9] 2.48 µM

COc1cc(CCc2cc(NC(=O)c3ccc(N4C[C@@H](C)N[C@@H](C)C4)cc3)n[nH]2)cc(OC)c1 [AZD-4547]
inactive: [1] > 30 µM | [3] > 30 µM | [4] > 30 µM | [5] > 30 µM | [6] > 30 µM | [7] > 30 µM | [8] > 30 µM | [9] > 30 µM | [10] > 30 µM
active: [2] 0.17 µM

CNC(=O)c1cc(Oc2ccc(NC(=O)Nc3ccc(Cl)c(C(F)(F)F)c3)c(F)c2)ccn1 [REGORAFENIB]
inactive: [1] > 30 µM | [2] > 30 µM | [3] > 30 µM | [4] > 30 µM | [5] > 30 µM | [6] > 30 µM | [7] > 30 µM | [9] > 30 µM | [10] > 30 µM
active: [8] 0.682 µM

CCN1CCN(Cc2ccc(-c3cc4c(N[C@H](C)c5ccccc5)ncnc4[nH]3)cc2)CC1 [AEE-788]
active: [10] 42.6 µM
inactive: [1] > 30 µM | [2] > 30 µM | [3] > 30 µM | [4] > 30 µM | [5] > 30 µM | [6] > 30 µM | [7] > 30 µM | [8] > 30 µM | [9] > 30 µM

CN1CC[C@@H](c2c(O)cc(O)c3c(=O)cc(-c4ccccc4Cl)oc23)[C@@H]1CO
active: [3] 2.39 µM
inactive: [1] > 30 µM | [2] > 30 µM | [4] > 30 µM | [5] > 30 µM | [6] > 30 µM | [7] > 30 µM | [8] > 30 µM | [9] > 30 µM | [10] > 30 µM

COc1cc(OC)c(/C=C/S(=O)(=O)Cc2ccc(OC)c(NCC(=O)O)c2)c(OC)c1 [RIGOSERTIB]
inactive: [1] > 30 µM | [2] > 30 µM | [3] > 30 µM | [4] > 30 µM | [5] > 30 µM | [6] > 30 µM | [7] > 30 µM | [8] > 30 µM | [9] > 30 µM | [10] > 30 µM

COc1cc2nccc(Oc3ccc(NC(=O)Nc4cc(C)on4)c(Cl)c3)c2cc1OC [TIVOZANIB]
active: [9] 2.02 µM | [10] 4.62 µM
inactive: [1] > 30 µM | [2] > 30 µM | [3] > 30 µM | [4] > 30 µM | [5] > 30 µM | [6] > 30 µM | [7] > 30 µM | [8] > 30 µM

CNC(=O)c1ccc(-c2cnc3ncc(Cc4ccc5ncccc5c4)n3n2)cc1F [CAPMATINIB]
inactive: [1] > 30 µM | [2] > 30 µM | [3] > 30 µM | [4] > 30 µM | [5] > 30 µM | [6] > 30 µM | [7] > 30 µM | [8] > 30 µM | [9] > 30 µM | [10] > 30 µM

CC[C@@H]1C(=O)N(C)c2cnc(Nc3ccc(C(=O)N[C@H]4CC[C@H](N5CCN(CC6CC6)CC5)CC4)cc3OC)nc2N1C(C)C [VOLASERTIB]
inactive: [1] > 30 µM | [2] > 30 µM | [3] > 30 µM | [4] > 30 µM | [5] > 30 µM | [6] > 30 µM | [7] > 30 µM | [8] > 30 µM | [9] > 30 µM | [10] > 30 µM

CN1CCC(COc2cnc(-c3cccc(Cn4nc(-c5cccc(C#N)c5)ccc4=O)c3)nc2)CC1 [TEPOTINIB]
inactive: [1] > 30 µM | [2] > 30 µM | [3] > 30 µM | [4] > 30 µM | [5] > 30 µM | [6] > 30 µM | [7] > 30 µM | [8] > 30 µM | [9] > 30 µM | [10] > 30 µM

Cc1cc2c(F)c(Oc3ncnn4cc(OC[C@@H](C)OC(=O)[C@H](C)N)c(C)c34)ccc2[nH]1 [BRIVANIB ALANINATE]
active: [10] 8.44 µM
inactive: [1] > 30 µM | [2] > 30 µM | [3] > 30 µM | [4] > 30 µM | [5] > 30 µM | [6] > 30 µM | [7] > 30 µM | [8] > 30 µM | [9] > 30 µM

Cc1cc([C@@H](C)Nc2ccccc2C(=O)O)c2nc(N3CCOCC3)cc(=O)n2c1 [AZD-6482]
inactive: [1] > 30 µM | [2] > 30 µM | [3] > 30 µM | [4] > 30 µM | [5] > 30 µM | [7] > 30 µM | [8] > 30 µM | [9] > 30 µM | [10] > 30 µM
4.1 µM: [6]

CCS(=O)(=O)N1CC(CC#N)(n2cc(-c3ncnc4[nH]ccc34)cn2)C1 [BARICITINIB]
active: [2] 0.335 µM | [3] 1.07 µM | [7] 0.046 µM
inactive: [1] > 30 µM | [4] > 30 µM | [5] > 30 µM | [6] > 30 µM | [8] > 30 µM | [9] > 30 µM | [10] > 30 µM

Cc1cc(-c2cc(O)ccc2Cl)cc2nnc(Nc3ccc(OCCN4CCCC4)cc3)nc12
inactive: [1] > 30 µM | [2] > 30 µM | [3] > 30 µM | [4] > 30 µM | [5] > 30 µM | [6] > 30 µM | [7] > 30 µM | [8] > 30 µM | [9] > 30 µM | [10] > 30 µM

Cc1c(F)cc(C(=O)NC2CC2)cc1-c1ccc(C(=O)NCC(C)(C)C)cn1 [LOSMAPIMOD]
inactive: [1] > 30 µM | [2] > 30 µM | [3] > 30 µM | [4] > 30 µM | [5] > 30 µM | [6] > 30 µM | [7] > 30 µM | [9] > 30 µM | [10] > 30 µM
active: [8] 0.027 µM

O=C(c1ccc(F)c(F)c1Nc1ccc(I)cc1F)N1CC(O)([C@@H]2CCCCN2)C1 [COBIMETINIB]
inactive: [1] > 30 µM | [2] > 30 µM | [3] > 30 µM | [4] > 30 µM | [5] > 30 µM | [6] > 30 µM | [7] > 30 µM | [8] > 30 µM | [9] > 30 µM | [10] > 30 µM
